Assay results from ChEMBL document CHEMBL5465560, “Selectivity Literature for EUbOPEN Chemogenomic Library” (2024).

How the values were obtained:
[1] = molecular target: T1, Serine/threonine-protein kinase Sgk1 (Homo sapiens) (UniProt O00141); assay: Selectivity interaction (KinomeScan (DiscoverX)) EUB0000229b SGK1; conditions: at 10 µM
T1 sequence (whole entry): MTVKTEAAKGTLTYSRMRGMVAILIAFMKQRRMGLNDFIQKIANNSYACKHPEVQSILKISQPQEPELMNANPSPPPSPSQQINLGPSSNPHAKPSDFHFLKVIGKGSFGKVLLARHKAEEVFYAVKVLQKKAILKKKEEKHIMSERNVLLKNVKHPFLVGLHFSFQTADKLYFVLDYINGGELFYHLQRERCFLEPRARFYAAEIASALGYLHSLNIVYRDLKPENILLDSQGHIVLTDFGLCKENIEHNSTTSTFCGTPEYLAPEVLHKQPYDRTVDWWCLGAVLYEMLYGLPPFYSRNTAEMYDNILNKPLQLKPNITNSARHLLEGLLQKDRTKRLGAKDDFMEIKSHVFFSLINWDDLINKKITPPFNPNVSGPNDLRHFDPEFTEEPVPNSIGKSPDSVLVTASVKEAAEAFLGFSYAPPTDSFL

[2] = system: Tyrosine-protein kinase ABL1 (Homo sapiens), P00519 [F317I]; assay: (§1) Selectivity interaction (KinomeScan (DiscoverX)) EUB0000092b ABL1; conditions: at 10 µM
[3] = system: Tyrosine-protein kinase ABL1 (Homo sapiens), P00519 [F317L]; assay: as §1; conditions: at 10 µM
[4] = system: Tyrosine-protein kinase ABL1 (Homo sapiens), P00519 [H396P]; assay: as §1; conditions: at 10 µM
[5] = system: Tyrosine-protein kinase ABL1 (Homo sapiens), P00519 [M351T]; assay: as §1; conditions: at 10 µM
[6] = system: Tyrosine-protein kinase ABL1 (Homo sapiens), P00519 [Q252H]; assay: as §1; conditions: at 10 µM
[7] = system: Tyrosine-protein kinase ABL1 (Homo sapiens), P00519 [T315I]; assay: as §1; conditions: at 10 µM
[8] = molecular target: Tyrosine-protein kinase ABL1 (Homo sapiens, UniProt P00519); assay: as §1; conditions: at 10 µM
[9] = molecular target: T2, Inhibitor of nuclear factor kappa-B kinase subunit epsilon (Homo sapiens) (UniProt Q14164); assay: Selectivity interaction (KinomeScan (DiscoverX)) EUB0000092b IKBKE; conditions: at 10 µM
T2 sequence (whole entry): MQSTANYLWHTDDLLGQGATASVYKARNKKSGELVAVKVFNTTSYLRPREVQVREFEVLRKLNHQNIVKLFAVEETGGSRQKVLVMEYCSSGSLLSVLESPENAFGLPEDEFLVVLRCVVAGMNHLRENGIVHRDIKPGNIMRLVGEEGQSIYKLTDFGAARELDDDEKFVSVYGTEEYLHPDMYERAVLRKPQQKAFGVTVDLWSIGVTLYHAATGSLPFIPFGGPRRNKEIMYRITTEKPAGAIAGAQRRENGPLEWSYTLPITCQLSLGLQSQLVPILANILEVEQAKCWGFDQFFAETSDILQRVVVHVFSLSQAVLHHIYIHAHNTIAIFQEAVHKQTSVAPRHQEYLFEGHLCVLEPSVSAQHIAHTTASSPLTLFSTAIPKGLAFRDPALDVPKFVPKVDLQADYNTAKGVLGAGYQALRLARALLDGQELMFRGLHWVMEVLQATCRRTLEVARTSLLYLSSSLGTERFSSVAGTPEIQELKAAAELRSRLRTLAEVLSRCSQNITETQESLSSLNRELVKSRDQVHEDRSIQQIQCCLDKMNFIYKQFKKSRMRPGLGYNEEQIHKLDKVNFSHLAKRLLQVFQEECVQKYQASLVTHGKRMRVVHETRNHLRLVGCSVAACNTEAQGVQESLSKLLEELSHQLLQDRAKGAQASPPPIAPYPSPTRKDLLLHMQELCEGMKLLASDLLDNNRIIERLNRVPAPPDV

[10] = molecular target: Serine/threonine-protein kinase MARK2 (Homo sapiens) (UniProt Q7KZI7); assay: Selectivity interaction (Kinase panel (KiNativ target engagement assay in Jurkat cells)) EUB0001635a MARK2; assay type: cell-based; conditions: Selectivity number of off-targets 0.0, Selectivity number of targets 233.0, Source Knowledge https://www.sciencedirect.com/science/article/pii/S2451945619300674?via%3Dihub, at 1 µM
[11] = system: Hepatocyte growth factor receptor (Homo sapiens), P08581 [M1250T]; assay: (§2) Selectivity interaction (KinomeScan (DiscoverX)) EUB0000045b MET
[12] = system: Hepatocyte growth factor receptor (Homo sapiens), P08581 [Y1235D]; assay: as §2
[13] = molecular target: Hepatocyte growth factor receptor (Homo sapiens, UniProt P08581); assay: as §2
[14] = molecular target: Calcium/calmodulin-dependent protein kinase type II subunit gamma (Homo sapiens) (UniProt Q13555); assay: Selectivity interaction (KinomeScan (DiscoverX)) EUB0000618a CAMK2G; conditions: at 10 µM
[15] = molecular target: Atypical kinase COQ8A, mitochondrial (Homo sapiens, UniProt Q8NI60); assay: Selectivity interaction (Ambit KINOMEscan and KiNATiv profiling in Jurkat cells) EUB0000090b ADCK3; assay type: cell-based; conditions: at 1 µM

Sequence of Hepatocyte growth factor receptor (P08581 whole entry): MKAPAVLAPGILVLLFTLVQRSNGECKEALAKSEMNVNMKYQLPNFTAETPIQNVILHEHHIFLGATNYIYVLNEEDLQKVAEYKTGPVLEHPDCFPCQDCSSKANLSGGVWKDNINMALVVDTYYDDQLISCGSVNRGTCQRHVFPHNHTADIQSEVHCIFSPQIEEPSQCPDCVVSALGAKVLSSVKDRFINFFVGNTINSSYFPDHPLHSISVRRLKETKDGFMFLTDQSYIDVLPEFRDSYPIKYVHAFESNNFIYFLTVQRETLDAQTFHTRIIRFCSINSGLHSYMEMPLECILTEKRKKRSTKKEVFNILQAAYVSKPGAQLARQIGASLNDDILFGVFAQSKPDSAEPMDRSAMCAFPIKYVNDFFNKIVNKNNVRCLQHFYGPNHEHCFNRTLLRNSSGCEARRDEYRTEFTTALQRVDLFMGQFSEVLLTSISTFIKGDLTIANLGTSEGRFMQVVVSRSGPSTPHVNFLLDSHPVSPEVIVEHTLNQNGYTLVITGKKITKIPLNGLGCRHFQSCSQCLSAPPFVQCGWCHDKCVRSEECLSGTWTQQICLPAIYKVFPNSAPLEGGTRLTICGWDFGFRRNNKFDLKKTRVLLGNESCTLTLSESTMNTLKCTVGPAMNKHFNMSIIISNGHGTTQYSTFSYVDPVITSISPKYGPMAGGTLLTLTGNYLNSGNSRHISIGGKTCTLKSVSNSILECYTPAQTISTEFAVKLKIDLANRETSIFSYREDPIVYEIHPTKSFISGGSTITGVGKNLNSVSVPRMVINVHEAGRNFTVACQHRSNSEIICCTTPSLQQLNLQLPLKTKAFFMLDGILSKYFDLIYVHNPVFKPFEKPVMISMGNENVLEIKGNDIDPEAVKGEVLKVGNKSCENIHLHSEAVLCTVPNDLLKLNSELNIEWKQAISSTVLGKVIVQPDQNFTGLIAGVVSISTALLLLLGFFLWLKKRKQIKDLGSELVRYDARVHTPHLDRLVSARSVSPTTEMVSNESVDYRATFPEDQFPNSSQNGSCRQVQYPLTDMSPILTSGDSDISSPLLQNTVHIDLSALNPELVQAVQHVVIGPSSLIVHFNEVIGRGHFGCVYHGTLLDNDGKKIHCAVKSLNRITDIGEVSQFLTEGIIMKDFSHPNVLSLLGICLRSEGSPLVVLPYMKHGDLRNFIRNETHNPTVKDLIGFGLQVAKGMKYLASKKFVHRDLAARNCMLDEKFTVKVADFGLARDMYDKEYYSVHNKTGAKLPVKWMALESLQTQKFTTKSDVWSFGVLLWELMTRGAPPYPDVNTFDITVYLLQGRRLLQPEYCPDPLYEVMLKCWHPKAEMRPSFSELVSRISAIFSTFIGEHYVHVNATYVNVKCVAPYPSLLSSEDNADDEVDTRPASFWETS
Sequence of Hepatocyte growth factor receptor (Homo sapiens), P08581 [Y1235D] (P08581 whole entry Y1235D): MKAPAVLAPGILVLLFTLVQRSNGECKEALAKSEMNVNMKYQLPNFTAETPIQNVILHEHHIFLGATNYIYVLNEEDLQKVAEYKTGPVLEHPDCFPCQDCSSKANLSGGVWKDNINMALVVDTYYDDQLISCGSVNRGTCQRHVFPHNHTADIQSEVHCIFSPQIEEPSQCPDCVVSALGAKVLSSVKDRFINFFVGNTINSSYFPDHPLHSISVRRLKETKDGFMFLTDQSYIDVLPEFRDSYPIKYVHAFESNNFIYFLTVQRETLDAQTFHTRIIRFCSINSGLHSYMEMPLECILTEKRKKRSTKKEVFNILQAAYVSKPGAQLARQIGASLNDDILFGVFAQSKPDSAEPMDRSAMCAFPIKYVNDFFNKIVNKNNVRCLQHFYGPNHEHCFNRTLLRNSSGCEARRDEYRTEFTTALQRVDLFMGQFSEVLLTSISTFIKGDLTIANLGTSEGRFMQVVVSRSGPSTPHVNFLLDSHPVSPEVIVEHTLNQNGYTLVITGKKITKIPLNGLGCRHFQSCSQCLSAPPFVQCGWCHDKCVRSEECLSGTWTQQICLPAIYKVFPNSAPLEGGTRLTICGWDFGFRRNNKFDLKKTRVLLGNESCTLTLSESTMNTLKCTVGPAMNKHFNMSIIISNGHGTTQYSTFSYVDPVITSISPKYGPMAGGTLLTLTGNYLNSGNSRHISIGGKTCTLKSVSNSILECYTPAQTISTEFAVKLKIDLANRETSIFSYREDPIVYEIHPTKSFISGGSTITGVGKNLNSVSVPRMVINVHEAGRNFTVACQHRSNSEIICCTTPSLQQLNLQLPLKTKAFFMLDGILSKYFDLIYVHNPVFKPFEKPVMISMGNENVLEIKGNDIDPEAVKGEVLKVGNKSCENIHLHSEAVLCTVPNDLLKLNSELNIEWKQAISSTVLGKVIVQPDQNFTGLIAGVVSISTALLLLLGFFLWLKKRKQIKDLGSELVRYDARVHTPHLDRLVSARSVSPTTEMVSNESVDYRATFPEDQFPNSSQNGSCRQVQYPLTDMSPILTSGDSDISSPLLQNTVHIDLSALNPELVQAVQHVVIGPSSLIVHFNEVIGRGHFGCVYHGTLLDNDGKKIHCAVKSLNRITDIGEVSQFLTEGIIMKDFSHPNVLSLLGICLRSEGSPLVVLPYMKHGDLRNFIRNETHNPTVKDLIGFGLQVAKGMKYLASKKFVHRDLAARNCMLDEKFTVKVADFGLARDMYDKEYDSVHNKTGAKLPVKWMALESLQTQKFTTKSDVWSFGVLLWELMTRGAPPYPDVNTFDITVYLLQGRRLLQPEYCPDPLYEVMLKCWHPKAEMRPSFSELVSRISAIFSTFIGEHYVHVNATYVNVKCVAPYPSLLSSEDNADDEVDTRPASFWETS
Sequence of Hepatocyte growth factor receptor (Homo sapiens), P08581 [M1250T] (P08581 whole entry M1250T): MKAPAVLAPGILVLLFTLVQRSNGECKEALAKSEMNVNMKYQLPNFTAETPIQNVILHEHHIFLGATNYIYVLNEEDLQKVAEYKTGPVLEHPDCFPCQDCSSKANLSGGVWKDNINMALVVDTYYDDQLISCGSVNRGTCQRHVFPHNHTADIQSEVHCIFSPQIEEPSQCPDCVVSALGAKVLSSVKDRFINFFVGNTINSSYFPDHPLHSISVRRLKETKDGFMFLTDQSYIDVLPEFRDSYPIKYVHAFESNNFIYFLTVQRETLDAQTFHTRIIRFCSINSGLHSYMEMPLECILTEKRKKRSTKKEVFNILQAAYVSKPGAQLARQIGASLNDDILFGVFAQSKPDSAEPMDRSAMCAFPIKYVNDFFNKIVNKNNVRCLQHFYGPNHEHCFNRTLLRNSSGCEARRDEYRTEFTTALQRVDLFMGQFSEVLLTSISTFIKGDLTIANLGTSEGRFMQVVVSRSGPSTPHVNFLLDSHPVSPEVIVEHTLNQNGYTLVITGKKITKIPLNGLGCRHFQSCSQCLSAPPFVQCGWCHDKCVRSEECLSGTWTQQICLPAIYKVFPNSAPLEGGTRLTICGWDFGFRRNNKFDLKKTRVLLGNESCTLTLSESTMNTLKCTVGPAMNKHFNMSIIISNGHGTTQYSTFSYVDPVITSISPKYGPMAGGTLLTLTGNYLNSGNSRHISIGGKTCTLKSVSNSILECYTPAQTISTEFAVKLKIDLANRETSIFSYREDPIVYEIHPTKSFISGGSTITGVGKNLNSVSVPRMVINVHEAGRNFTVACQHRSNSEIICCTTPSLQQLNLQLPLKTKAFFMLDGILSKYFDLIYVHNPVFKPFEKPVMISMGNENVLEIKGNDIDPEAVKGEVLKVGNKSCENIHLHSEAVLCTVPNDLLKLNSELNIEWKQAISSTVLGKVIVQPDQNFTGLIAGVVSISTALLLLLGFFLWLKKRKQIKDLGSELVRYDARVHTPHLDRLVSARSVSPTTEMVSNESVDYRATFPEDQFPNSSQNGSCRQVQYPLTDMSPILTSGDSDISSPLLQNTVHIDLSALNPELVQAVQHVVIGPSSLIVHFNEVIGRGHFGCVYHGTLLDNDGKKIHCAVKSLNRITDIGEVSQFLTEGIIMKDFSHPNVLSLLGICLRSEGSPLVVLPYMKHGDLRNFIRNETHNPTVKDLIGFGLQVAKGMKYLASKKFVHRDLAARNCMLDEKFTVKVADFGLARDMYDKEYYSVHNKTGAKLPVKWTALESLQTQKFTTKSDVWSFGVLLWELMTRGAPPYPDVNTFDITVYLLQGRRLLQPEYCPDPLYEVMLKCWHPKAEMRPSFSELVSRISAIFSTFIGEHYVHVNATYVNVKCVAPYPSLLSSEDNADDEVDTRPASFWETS
Sequence of Serine/threonine-protein kinase MARK2 (Homo sapiens) (Q7KZI7 whole entry): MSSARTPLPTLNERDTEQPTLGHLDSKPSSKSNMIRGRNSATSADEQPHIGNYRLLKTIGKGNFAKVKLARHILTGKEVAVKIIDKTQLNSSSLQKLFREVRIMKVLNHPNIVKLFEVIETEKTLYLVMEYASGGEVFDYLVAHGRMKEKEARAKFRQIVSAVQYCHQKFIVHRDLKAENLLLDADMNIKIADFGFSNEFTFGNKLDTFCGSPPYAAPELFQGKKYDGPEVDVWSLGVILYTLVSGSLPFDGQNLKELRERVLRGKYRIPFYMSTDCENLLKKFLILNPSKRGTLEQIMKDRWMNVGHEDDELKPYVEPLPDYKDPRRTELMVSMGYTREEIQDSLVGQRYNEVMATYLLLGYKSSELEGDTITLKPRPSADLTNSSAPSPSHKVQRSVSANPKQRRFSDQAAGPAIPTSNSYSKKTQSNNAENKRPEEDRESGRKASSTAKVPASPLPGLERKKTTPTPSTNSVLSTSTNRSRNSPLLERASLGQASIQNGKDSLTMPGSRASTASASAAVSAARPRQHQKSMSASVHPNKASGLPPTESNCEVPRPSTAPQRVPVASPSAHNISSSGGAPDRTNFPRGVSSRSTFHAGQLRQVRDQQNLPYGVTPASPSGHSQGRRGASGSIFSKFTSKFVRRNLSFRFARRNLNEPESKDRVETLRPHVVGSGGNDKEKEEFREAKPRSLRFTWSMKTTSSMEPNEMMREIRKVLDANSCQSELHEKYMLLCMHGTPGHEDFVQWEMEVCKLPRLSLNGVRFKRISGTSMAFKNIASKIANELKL

Molecule `COc1cc(N(C)c2ccnc3ccc(C(F)(F)F)cc23)cc(OC)c1OC` has a % binding [1] of 97%.

Work on `CCC(=O)N1CCN(c2ccc(-n3c(=O)ccc4cnc5ccc(-c6cnc7ccccc7c6)cc5c43)cc2C(F)(F)F)CC1` yielded a % of control [2] of 100%, a % of control [3] of 100% and a % of control [4] of 68%. It also gave a % of control [5] of 100%, a % of control [6] of 89% and a % of control [7] of 100%. It also gave a % of control [8] of 60% and a % of control [9] of 87%.

With `C=CC(=O)Nc1ccc(C(=O)Nc2[nH]nc3c2CN(C(=O)N[C@H](CN(C)C)c2ccccc2)C3(C)C)cc1` the % of engagement [10] was -1.9%.

`C=CC(=O)Nc1cc(-n2c(=O)ccc3cnc4ccc(-c5ccc(NS(C)(=O)=O)cc5)cc4c32)ccc1C` gave a % of control ([11]; at 1 µM) of 80%, a % of control ([11]; at 10 µM) of 90% and a % of control ([12]; at 1 µM) of 95%. It also gave a % of control ([12]; at 10 µM) of 100%, a % of control ([13]; at 1 µM) of 100% and a % of control ([13]; at 10 µM) of 64%.

Work on `O[C@H]1CC[C@H](Nc2ncc3nc(Nc4c(F)cc(F)cc4F)n([C@H]4CCOC4)c3n2)CC1` yielded a % of control [14] of 100%.

In the case of `CN(C)C/C=C/C(=O)Nc1ccc(C(=O)N2CCCC(Nc3ncc(Cl)c(-c4c[nH]c5ccccc45)n3)C2)cc1` (stereo not drawn), the % of control [15] is reported as 90%.
